# Literature values as cited in patent US20240197637A1, “POLYMERIC MICROPARTICLES FOR THE LOCAL TREATMENT OF CHRONIC INFLAMMATORY DISEASES” (FONDAZIONE ISTITUTO ITALIANO DI TECNOLOGIA, priority 2021, published 2024).
# Test system: DMM murine model of injury-induced OA
smiles,measurement,setting,value
Cc1ccc2c(c1)C1(CCN(CCc3nc(-c4ccccc4)oc3C)CC1)OC(=O)N2 [RS 504393],pain perception,orally and daily administered,decreased
same,severity of structural damage,"orally and daily administered, early OA stage",decreased the severity of structural damage
same,cartilage and bone damage,prolonged and delayed exposure,did not translate in a significant reduction
same,pain,prolonged and delayed exposure,alleviating pain
